Measurements as given in ChEMBL document CHEMBL3992552, “Mechanisms of action and structure-activity relationships of cytotoxic flavokawain derivatives” (Bioorg Med Chem, 2017).
pIC50: −log10 of the molar value. The source made the active and inactive calls. The calls are words filed in the database; no cut-off is given here.

What was measured:
HaCaT [1] = test: Cytotoxicity against human HaCaT cells assessed as cell survival at 50 uM after 48 hrs by Hoechst 33342 staining based assay relative to control; type: functional; details: read-out: Survival
NCI-H727 [2] = test: Cell cycle arrest in human NCI-H727 cells harboring p53 mutant assessed as mitotic index at 10 uM measured after 48 hrs by Hoechst staining based fluorescence assay (reference value: 1.1); type: functional
Caco-2 [3] = test: Cytotoxicity against human Caco2 cells assessed as cell survival at 50 uM after 48 hrs by Hoechst 33342 staining based assay relative to control; type: functional; details: Caco-2, 48 h, read-out: Survival
RL = test: Cytotoxicity against human RL assessed as cell viability after 48 hrs by Hoechst 33342 staining based assay; type: functional
MCF7 [4] = test: Induction of apoptosis in human MCF7 cells harboring wild-type p53 assessed as upregulation of p21 measured after 48 hrs by Hoechst staining based fluorescence assay; type: functional, cell-based
HCT-116 [5] = test: Cytotoxicity against human HCT116 cells assessed as cell survival at 50 uM after 48 hrs by Hoechst 33342 staining based assay relative to control; type: functional; details: HCT-116, 48 h, read-out: Survival
MDA-MB-231 [6] = test: Induction of apoptosis in human MDA-MB-231 cells harboring p53 mutant assessed as upregulation of cyclinB1 after 18 hrs by Hoechst staining based assay; type: functional, cell-based
HaCaT [7] = test: Cytotoxicity against human HaCaT cells assessed as cell viability after 48 hrs by Hoechst 33342 staining based assay; type: functional
MCF7 [8] = test: Cytotoxicity against human MCF7 assessed as cell viability after 48 hrs by Hoechst 33342 staining based assay; type: functional; details: MCF7, 48 h
PC-3 [9] = test: Cytotoxicity against human PC3 cells assessed as cell viability after 48 hrs by Hoechst 33342 staining based assay; type: functional; details: PC-3, 48 h
NCI-H727 [10] = test: Cell cycle arrest in human NCI-H727 cells harboring p53 mutant assessed as mitotic index at 25 uM measured after 48 hrs by Hoechst staining based fluorescence assay (reference value: 1.1); type: functional
Caco-2 [11] = test: Cell cycle arrest in human Caco2 cells assessed as accumulation at S phase at 25 uM measured after 48 hrs by Hoechst/BrdU staining based fluorescence assay (reference value: […]); type: functional
HCT-116 [12] = test: Induction of apoptosis in human HCT116 cells harboring wild-type p53 assessed as increase in early apoptosis at 2 times IC50 after 48 hrs by YoPro/propidium iodide/Hoechst staining based assay; type: functional, cell-based
[13] = Selectivity index, ratio of IC50 for human fibroblasts to IC50 for human MDA-MB-231 cells
MDA-MB-231 [14] = test: Cell cycle arrest in human MDA-MB-231 cells harboring p53 mutant assessed as accumulation at S phase at 10 uM measured after 48 hrs by Hoechst/BrdU staining based fluorescence assay (reference value: 42.2%); type: functional
HaCaT [15] = test: Cell cycle arrest in human HaCaT cells harboring […] p53 assessed as accumulation at S phase at 25 uM measured after 48 hrs by Hoechst/BrdU staining based fluorescence assay (reference value: 52.3%); type: functional
HaCaT [16] = test: Cell cycle arrest in human HaCaT cells harboring […] p53 assessed as mitotic index at 25 uM measured after 48 hrs by Hoechst staining based fluorescence assay (reference value: 2.6); type: functional
NCI-H727 [17] = test: Cell cycle arrest in human NCI-H727 cells assessed as accumulation at G1/S phase by Hoechst staining based fluorescence assay; type: functional
PC-3 [18] = test: Cell cycle arrest in human PC3 cells assessed as accumulation at M phase by Hoechst staining based fluorescence assay; type: functional
[19] = Selectivity index, ratio of IC50 for human fibroblasts to IC50 for human Caco2 cells
[20] = Cytotoxicity against human fibroblasts assessed as cell survival at 50 uM after 48 hrs by Hoechst 33342 staining based assay relative to control; design: species or system Fibroblast; details: read-out: Survival
Huh-7 [21] = test: Cytotoxicity against human HuH7 cells assessed as cell survival at 50 uM after 48 hrs by Hoechst 33342 staining based assay relative to control; type: functional; details: Huh-7, 48 h, read-out: Survival
NCI-H727 [22] = test: Cytotoxicity against human NCI-H727 cells assessed as cell survival at 50 uM after 48 hrs by Hoechst 33342 staining based assay relative to control; type: functional; details: NCI-H727, 48 h, read-out: Survival
MDA-MB-231 [23] = test: Cell cycle arrest in human MDA-MB-231 cells assessed as accumulation at M phase by Hoechst staining based fluorescence assay; type: functional
NCI-H727 [24] = test: Cytotoxicity against human NCI-H727 cells assessed as cell viability after 48 hrs by Hoechst 33342 staining based assay; type: functional; details: NCI-H727, 48 h
MDA-MB-231 [25] = test: Induction of apoptosis in human MDA-MB-231 cells harboring p53 mutant assessed as increase in cleaved caspase3 at 2 times IC50 after 24 hrs by Hoechst staining based assay; type: functional, cell-based
HCT-116 [26] = test: Induction of apoptosis in human HCT116 cells harboring wild-type p53 assessed as upregulation of cyclinB1 measured after 48 hrs by Hoechst staining based assay; type: functional, cell-based
MCF7 [27] = test: Induction of apoptosis in human MCF7 cells harboring wild-type p53 assessed as increase in late apoptosis at 2 times IC50 after 24 hrs by YoPro/propidium iodide/Hoechst staining based assay; type: functional, cell-based
Caco-2 [28] = test: Cell cycle arrest in human Caco2 cells assessed as accumulation at S phase at 10 uM measured after 48 hrs by Hoechst/BrdU staining based fluorescence assay (reference value: […]); type: functional
HCT-116 [29] = test: Cytotoxicity against human HCT116 cells assessed as cell viability after 48 hrs by Hoechst 33342 staining based assay; type: functional; details: HCT-116, 48 h
Huh-7 [30] = test: Cell cycle arrest in human HuH7 cells assessed as accumulation at S phase at 10 uM measured after 48 hrs by Hoechst/BrdU staining based fluorescence assay (reference value: 44%); type: functional
MDA-MB-231 [31] = test: Induction of apoptosis in human MDA-MB-231 cells harboring p53 mutant assessed as increase in late apoptosis at 2 times IC50 after 24 hrs by YoPro/propidium iodide/Hoechst staining based assay; type: functional, cell-based
[32] = Selectivity index, ratio of IC50 for human fibroblasts to IC50 for human HaCaT cells
[33] = Selectivity index, ratio of IC50 for human fibroblasts to IC50 for human HCT116 cells
PC-3 [34] = test: Cytotoxicity against human PC3 cells assessed as cell survival at 50 uM after 48 hrs by Hoechst 33342 staining based assay relative to control; type: functional; details: PC-3, 48 h, read-out: Survival
MCF7 [35] = test: Induction of apoptosis in human MCF7 cells harboring wild-type p53 assessed as increase in early apoptosis at 2 times IC50 after 24 hrs by YoPro/propidium iodide/Hoechst staining based assay; type: functional, cell-based
HCT-116 [36] = test: Cell cycle arrest in human HCT116 cells assessed as accumulation at G1/S phase by Hoechst staining based fluorescence assay; type: functional
HCT-116 [37] = test: Induction of apoptosis in human HCT116 cells harboring wild-type p53 assessed as increase in cleaved caspase3 at 2 times IC50 after 48 hrs by Hoechst staining based assay; type: functional, cell-based
Caco-2 [38] = test: Cell cycle arrest in human Caco2 cells assessed as accumulation at M phase by Hoechst staining based fluorescence assay; type: functional

SMILES | viability at 50 µM (HaCaT [1]) | viability at 50 µM (Caco-2 [3]) | pIC50 (RL) | Activity (MCF7 [4]) | viability at 50 µM (HCT-116 [5]) | pIC50 (HaCaT [7]) | pIC50 (MCF7 [8]) | pIC50 (PC-3 [9]) | Activity (Caco-2 [11]) | Activity (HCT-116 [12]) | Activity (MDA-MB-231 [14]) | Activity (HaCaT [15]) | Ratio IC50 [19] | viability at 48 h, 50 µM [20] | viability at 50 µM (Huh-7 [21]) | viability at 50 µM (NCI-H727 [22]) | pIC50 (NCI-H727 [24]) | Activity (HCT-116 [26]) | Activity (MCF7 [27]) | Activity (Caco-2 [28]) | further results
COc1cc(OC)c(C(=O)/C=C/c2ccc(F)cc2)c(OC)c1 | 21% | 3% | 5.19 | Active | 1% | 5.12 | 5.11 | 5.26 | 13% | Active | 43% | 0.4% | >9.1 | 78% | 8% | 4% | 5.26 | Active | Active | 39% | Activity_index (NCI-H727 [2]): 1.1; Activity (MDA-MB-231 [6]): Active; Activity_index (NCI-H727 [10]): 0.4; Ratio IC50 [13]: >4.7; Activity_index (HaCaT [16]): 0; Activity (NCI-H727 [17]): Active; Activity (PC-3 [18]): Active; Activity (MDA-MB-231 [23]): Active; Activity (MDA-MB-231 [25]): Active; pIC50 (HCT-116 [29]): 5.21; Activity (Huh-7 [30]): 44%; Activity (MDA-MB-231 [31]): Active; Ratio IC50 [32]: >6.6; Ratio IC50 [33]: >8.1; viability at 50 µM (PC-3 [34]): 26%; Activity (MCF7 [35]): Active; Activity (HCT-116 [36]): Active; Activity (HCT-116 [37]): Active; Activity (Caco-2 [38]): Active
COc1cc(O)c(C(=O)/C=C/c2ccccc2OC)c(OC)c1 | 30% | 43% | 5.00 | Active | 8% | 4.96 | 4.98 | 5.02 | 37% | Active | inactive | 29% | 3.6 | 71% | 39% | 11% | 4.96 | Active | Active | 46% | Activity_index (NCI-H727 [2]): 1; Activity_index (NCI-H727 [10]): 0.5; Activity_index (HaCaT [16]): 8.4; Activity (NCI-H727 [17]): Active; Activity (PC-3 [18]): Active; pIC50 (HCT-116 [29]): 5.04; Activity (Huh-7 [30]): inactive; Ratio IC50 [32]: 3.3; Ratio IC50 [33]: 4; viability at 50 µM (PC-3 [34]): 32%; Activity (MCF7 [35]): Active; Activity (HCT-116 [36]): Active; Activity (HCT-116 [37]): Active; Activity (Caco-2 [38]): Active
COc1cc(O)c(C(=O)/C=C/c2ccccc2)c(OC)c1 [FLAVOKAWAIN B] | 7% | 1% | 5.09 | Active | 0% | 4.87 | 4.81 | 5.04 | 40% | Active | 54% | 21% | 2.7 | 32% | 10% | 2% | 4.95 | Active | Active | 42% | Activity_index (NCI-H727 [2]): 0.8; Activity (MDA-MB-231 [6]): Active; Activity_index (NCI-H727 [10]): 0.2; Ratio IC50 [13]: 1.6; Activity_index (HaCaT [16]): 0.9; Activity (NCI-H727 [17]): Active; Activity (MDA-MB-231 [23]): Active; Activity (MDA-MB-231 [25]): Active; pIC50 (HCT-116 [29]): 5.12; Activity (Huh-7 [30]): 55%; Activity (MDA-MB-231 [31]): Active; Ratio IC50 [32]: 1.9; Ratio IC50 [33]: 3.5; viability at 50 µM (PC-3 [34]): 27%; Activity (MCF7 [35]): Active; Activity (HCT-116 [36]): Active; Activity (HCT-116 [37]): Active; Activity (Caco-2 [38]): Active
COc1cc(O)c(C(=O)/C=C/c2ccc(F)cc2)c(OC)c1 | 36% | 45% | 5.27 | Active | 25% | < 4.70 | 5.06 | 4.88 | 30% | Active | inactive | inactive | >5.4 | > 80% | 66% | 54% | < 4.70 | Active | Active | 49% | Activity (NCI-H727 [2]): inactive; Activity (NCI-H727 [10]): inactive; Activity (HaCaT [16]): inactive; Activity (PC-3 [18]): Active; pIC50 (HCT-116 [29]): 4.91; Activity (Huh-7 [30]): inactive; Ratio IC50 [33]: >4; viability at 50 µM (PC-3 [34]): 56%; Activity (MCF7 [35]): Active; Activity (HCT-116 [36]): Active; Activity (HCT-116 [37]): Active; Activity (Caco-2 [38]): Active
COc1cc(O)c(C(=O)/C=C/c2ccccc2SC)c(OC)c1 | 22% | 23% | 5.05 | Active | 1% | 4.98 | 4.80 | 5.06 | 37% | Active | inactive | 30% | 3.8 | 65% | 38% | 8% | 5.05 | Active | Active | 50% | Activity_index (NCI-H727 [2]): 0.9; Activity_index (NCI-H727 [10]): 0.4; Activity_index (HaCaT [16]): 7.8; Activity (NCI-H727 [17]): Active; Activity (PC-3 [18]): Active; pIC50 (HCT-116 [29]): 5.00; Activity (Huh-7 [30]): 50%; Ratio IC50 [32]: 3.4; Ratio IC50 [33]: 3.6; viability at 50 µM (PC-3 [34]): 35%; Activity (MCF7 [35]): Active; Activity (HCT-116 [36]): Active; Activity (HCT-116 [37]): Active; Activity (Caco-2 [38]): Active
